Our source for the logD, solubility and BCS classification values is US20120040008A1, “PHARMACEUTICAL COMPOSITIONS OF METABOTROPIC GLUTAMATE 5 RECEPTOR (MGLU5) ANTAGONISTS” (priority 2010, published 2012).

Format in all cases: physicochemical
A short description of one data set: log D at pH 7.4.
A short description of data set [1]: aqueous solubility of the free base, pH-dependent. Conditions: aqueous medium.
The nature of another data set: BCS classification. Conditions: because of pH dependent solubility in physiological range.

The structures appear in SMILES notation. ≈ marks a conversion by molar mass, not a printed value.

What is called logD is the decadic logarithm of the distribution of all forms, ionised or not, between an organic phase and buffer at a given pH. By solubility is commonly meant the concentration that dissolves in the medium under given conditions. A higher solubility goes with much dissolved substance.

For the compound `Cc1nc(C#Cc2ccnc(Cl)c2)c(C)n1-c1ccc(F)cc1` [2-Chloro-4-[1-(4-fluoro-phenyl)-2,5-dimethyl-1H-imidazol-4-ylethynyl]-pyridine], in the data set “log D at pH 7.4”, the logD was greater than 3. The solubility in data set [1] (aqueous buffer, alkaline conditions, pH 7) was 0.3 µg/mL (≈ 0.000921 mM); in data set [1] (simulated gastric fluid, acidic conditions, pH 1) it was 3200 µg/mL (≈ 9.82 mM). In addition, in “BCS classification”, the BCS classification result is reported as “BCS class 2”.
